Like-named read-outs stand apart in the source and are kept apart here.

Among the data in US8466176B2 (priority 2008, dated 2013) are pest or weed control, chromatographic logP and log p values, retold here.

The subject of one data set is Phytophthora infestans. The experiment in a line: whole plant or invertebrate. It is filed as in vivo. As to conditions: in Solanum lycopersicum, 168 h, read-out: efficacy.
A short description of data set [1]: logP by HPLC on reversed phase columns, method [a], pH 2.3 with 0.1% phosphoric acid and acetonitrile. The class given is physicochemical. Particulars: reversed phase HPLC columns; method [a]: pH 2.3, 0.1% phosphoric acid and acetonitrile as eluent; EEC directive 79/831 Annex V.A8, reversed phase HPLC; read-out: log p.
Data set [2] in a line: logP(HCOOH) reported with HPLC/MS.
Data set [3] is described as follows: Measurement of logP values according EEC directive 79/831 Annex V.A8 by HPLC on reversed phase columns. The class given is physicochemical. As to conditions: for chromatographic logP: reversed phase HPLC columns, read-out: log p.
The conditions of data set [4]: method [c]: LC-MS at pH 7.8, 0.001 molar ammonium hydrogen carbonate in water, linear gradient 10% to 95% acetonitrile.
Where [5] appears, read: no method mark printed in the cell.
The mark [6] stands for this setting: HCOOH (formic acid), logP(HCOOH), HPLC/MS.
[7] abbreviates: reversed phase HPLC column, pH 2.7, log p, method [b]: LC-MS at pH 2.7, 0.1% formic acid in water and acetonitrile, linear gradient 10% to 95% acetonitrile.
Setting [8] is: method [a]: pH 2.3 with 0.1% phosphoric acid and acetonitrile as eluent.

On to `Cn1nnnc1C(=NOCc1cccc(/C=C/C2CCCCC2)n1)c1ccccc1` [Example 93, N-({6-[(E)-2-cyclohexylvinyl]pyridin-2-yl}methoxy)-1-(1-methyl-1H-tetrazol-5-yl)-1-phenylmethanimine], for which the pest or weed control at 500 ppm in the data set with Phytophthora infestans is no less than 70%. Also, the chromatographic logP is 5.05 in data set [1] and 5.05 in data set [2] (HPLC, logP(HCOOH), HPLC/MS).
With `Cn1nnnc1C(=NOCc1cccc(Br)n1)c1ccccc1` (single isomer, unassigned) [Example 306], in data set [3] (setting [5]), the log p came out at 3.19.
Take `COc1ccc(CON=C(c2ccccc2)c2nnnn2C)nc1C#CC1CC1` [Example 126, N-{[6-(cyclopropylethynyl)-5-methoxypyridin-2-yl]methoxy}-1-(1-methyl-1H-tetrazol-5-yl)-1-phenylmethanimine]: in the data set on Phytophthora infestans, the pest or weed control at 500 ppm was no less than 70%. For the same compound, the chromatographic logP in data set [2] (setting [6]) and in data set [2] (setting [7]) was 3.23 each time.
In the case of `Cn1nnnc1C(=NOCc1cccc(C=NOC2CCCCC2)n1)c1ccccc1` [Example 274, N-[(6-{[(cyclohexyloxy)imino]methyl}pyridin-2-yl)methoxy]-1-(1-methyl-1H-tetrazol-5-yl)-1-phenylmethanimine], the chromatographic logP in data set [3] (setting [8]) was 4.89; in data set [2] (logP(HCOOH), HPLC/MS), 4.89.
Regarding `Cn1nnnc1C(=NOCc1cccc(Br)n1)c1ccccc1` (single isomer, unassigned) [Example 307], the log p in data set [3] (setting [5]) is on record as 3.00.
With `CCCCC1CC(c2cccc(CON=C(c3ccccc3)c3nnnn3C)n2)=NO1` (centres unmarked) [Example 276], in data set [3] (setting [8]), the log p was 4.26^[a].
Regarding `Cn1nnnc1C(=NOCc1csc(C#CC2CC2)n1)c1ccccc1` [Example 70, N-{[2-(cyclopropylethynyl)-1,3-thiazol-4-yl]methoxy}-1-(1-methyl-1H-tetrazol-5-yl)-1-phenylmethanimine], the pest or weed control at 500 ppm in the data set on Phytophthora infestans was no less than 70%. The chromatographic logP in data set [1] and in data set [2] (setting [6]) was 3.58 throughout.
For `Cn1nnnc1C(=NOCc1csc(/C=C/CC2CCCC2)n1)c1ccccc1` [Example 279], the log p in data set [3] (setting [8]) was 5.14^[a].
On the same count and under the same terms, to `Cn1nnnc1C(=NOCc1cccc(NCC2CCCCC2)n1)c1ccccc1` [Example 289] belongs 2.43^[a].
As to `COCC#Cc1cccc(CON=C(c2ccccc2)c2nnnn2C)n1` [Example 24], in data set [4], the log p is 3.04^[c].
As to `CCCC/C=C/c1nc(CON=C(c2ccccc2)c2nnnn2C)cs1` [Example 278, N-({2-[(1E)-hex-1-en-1-yl]-1,3-thiazol-4-yl}methoxy)-1-(1-methyl-1H-tetrazol-5-yl)-1-phenylmethanimine], the chromatographic logP was determined as 4.56 in data set [3] (setting [8]) and 4.56 in data set [2] (HPLC, logP(HCOOH), HPLC/MS).
`Cn1nnnc1C(=NOCc1cccc(C2OCCO2)n1)c1ccccc1` [Example 160, N-{[6-(1,3-dioxolan-2-yl)pyridin-2-yl]methoxy}-1-(1-methyl-1H-tetrazol-5-yl)-1-phenylmethanimine]: the pest or weed control at 500 ppm with Phytophthora infestans is no less than 70%. The chromatographic logP is 2.47 in data set [2] (HPLC, logP(HCOOH), HPLC/MS) and 2.47 in data set [2] (reversed phase HPLC column, pH 7.8, log p, method [c]: LC-MS, pH 7.8 with 0.001 molar ammonium hydrogen carbonate solution in water, linear gradient 10% to 95% acetonitrile).
With `Cn1nnnc1C(=NOCc1nc(Cl)sc1Cl)c1ccccc1` [Example 113, N-[(2,5-dichloro-1,3-thiazol-4-yl)methoxy]-1-(1-methyl-1H-tetrazol-5-yl)-1-phenylmethanimine], the pest or weed control at 500 ppm with Phytophthora infestans is no less than 70%. For the same compound, the chromatographic logP in data set [2] (setting [6]) and in data set [2] (setting [7]) was 3.67 each time.
Take `Cn1nnnc1C(=NOCc1cccc(NCC2CCCC2)n1)c1ccccc1` [Example 288]: the log p in data set [3] (setting [8]) is 2.3^[a].
Consider `Cn1nnnc1C(=NOCc1nc(C#CC2CC2)sc1Cl)c1ccccc1` [Example 114, N-{[5-chloro-2-(cyclopropylethynyl)-1,3-thiazol-4-yl]methoxy}-1-(1-methyl-1H-tetrazol-5-yl)-1-phenylmethanimine], for which, in the data set with Phytophthora infestans, the pest or weed control at 500 ppm is no less than 70%. For the same compound, the chromatographic logP in data set [2] (setting [6]) and in data set [2] (setting [7]) was 4.59 each time.
In the case of `CCCCC#Cc1ccc(F)c(CON=C(c2ccccc2)c2nnnn2C)n1` [Example 99, N-{[3-fluoro-6-(hex-1-yn-1-yl)pyridin-2-yl]methoxy}-1-(1-methyl-1H-tetrazol-5-yl)-1-phenylmethanimine], in the data set with Phytophthora infestans, the pest or weed control at 500 ppm is no less than 70%. Besides, the chromatographic logP is 4.41 in data set [2] (logP(HCOOH), HPLC/MS) and 4.41 in data set [2] (setting [7]).
On to `Cn1nnnc1C(=NOCc1csc(/C=C/C2CC2)n1)c1ccccc1` [Example 277], for which, in data set [3] (setting [8]), the log p is 3.58^[a].
Turning to `Cn1nnnc1C(=NOCc1csc(Br)n1)c1ccccc1` [Example 32, N-[(2-bromo-1,3-thiazol-4-yl)methoxy]-1-(1-methyl-1H-tetrazol-5-yl)-1-phenyl-methanimine], in the data set with Phytophthora infestans, the pest or weed control at 500 ppm is no less than 70%. In data set [2] (logP(HCOOH), HPLC/MS), this compound displayed a chromatographic logP of 3.11.
In the case of `CCCCC#Cc1cccc(CON=C(c2ccccc2)c2nnnn2C)n1` [Example 23, N-{[6-(hex-1-yn-1-yl)pyridin-2-yl]methoxy}-1-(1-methyl-1H-tetrazol-5-yl)-1-phenylmethanimine], in the data set on Phytophthora infestans, the pest or weed control at 500 ppm was no less than 70%.
For the compound `Cn1nnnc1C(=NOCc1cccc(CO)n1)c1ccccc1` [Example 275, {6-[({[(1-methyl-1H-tetrazol-5-yl)(phenyl)methylene]amino}oxy)methyl]pyridin-2-yl}methanol], the chromatographic logP in data set [3] (setting [8]) and in data set [2] (setting [6]) was 1.76 each time.
